Data published in patent US10196357B2, “Biaryl compositions and methods for modulating a kinase cascade” (Athenex, Inc., priority 2007, dated 2019).
Several values for one entry are separate records, joined by “and”; a condition that tells them apart may be missing. Equal values may be shown once. Read-outs that look alike come from different tables or passages of the source. Each block holds one molecule with its values, some of them ahead of it.

How the values were obtained:
[1] = test system: wild-type aywl strain of HBV; experiment: HBV primary assay (HepG2-2.2.15 antiviral assay); format: cell-based; conditions: Test Concentration 1 μM
Method: The HBV primary assay developed was conducted similarly to that described by Korba et al., (Antiviral Res. 15: 217-228 (1991) and Antiviral Res. 19: 55-70 (1992)) with the exception that viral DNA detection and quantification have been improved and simplified (Korba et al., Antiviral Res. 19: 55-70 (1992)).
Compound 38 (KX2-377), Compound 136 (KX2-393), and Compound 137 (KX2-394) were evaluated for potential anti-HBV activity using a single high-test concentration of compounds in the standardized HepG2-2.2.15 antiviral assay. The HepG2-2.2.15 is a stable cell line producing high levels of the wild-type aywl strain of HBV. Briefly, HepG2-2.2.15 cells were plated in 96-well plates. Only the interior wells were utilized to reduce “edge effects” observed during cell culture; the exterior wells are filled with complete medium to help minimize sample evaporation. On the following day, the confluent monolayer of HepG2-2.2.15 cells was washed and the medium is replaced with complete medium containing test concentrations of a test article in triplicate. 3TC was used as the positive control, while media alone was added to cells as the untreated control. Three days later the culture medium was replaced with fresh medium containing the appropriately diluted drug. Six days following the initial administration of the test compound, the cell culture supernatant was collected, treated with pronase and DNAse and then used in a real-time quantitative TaqMan PCR assay for direct measurement of HBV DNA copies using an ABI Prism 7900 sequence detection system (Applied Biosystems, Foster City, Calif.).
The antiviral activity of each test compound was calculated by comparing its HBV DNA copies against that of the untreated control cells (100%) to derive percent inhibition level. After removing the supernatant, the remaining cells were subject to CellTiter 96 Aqueous One (Promega, Madison, Wis.) solution cell proliferation assay (MTS-based) to measure cell viability. Cytotoxicity of the compound was determined by comparing its cell viability with that of the untreated cell control to derive percentage of the cell control.

[2] = plasma pharmacokinetics after IV administration; format: in vivo, Male CD-1 mice; conditions: single IV dose 5 mg/kg
Method: (§1) [drawing 435] are described below. Plasma concentrations were measured in mice after oral and IV administration. Both oral and IV doses were formulated in saline. Male CD-1 mice were dosed after an overnight fast and fed 4 hours post-dose.
A single IV dose of 139 was administered to male CD-1 mice intravenously at 5 mg/kg (dose volume of 3 mL/kg). The plasma concentration of 139 was measured at 0 min, 5 min, 15 min, 30 min, 1 h, 3 h, 6 h, and 12 h time points. A liquid-liquid extraction procedure was used to isolate the analyte and internal standard from mice plasma. After the extract was dried and reconstituted, the sample was directly injected into a liquid chromatography/mass spectrometry (LC/MS) system. HPLC conditions were as follows: • HPLC System: Shimadzu SCL-10 System • Analytical Column: Aquasil C18 5 μm 50×2.1 mm column. • Column Temperature: Ambient temperature • Autosampler Temperature: Ambient temperature • Mobile Phase A) 10 mM Ammonium formate in water (pH4). • B) Acetonitrile. • Flow Rate: 0.6 mL/min • Injection Volume: 4 μL • Gradient:
• Mass spectrometry conditions were as follows: • Instrument: ABI Sciex API 4000 • Mode: ESI+ • Experiment: MRM (multiple reaction monitoring) • Transitions: 139: m/z 480.1→127.1 (Rt=3.8 minute)

[3] = plasma pharmacokinetics after oral administration; format: in vivo, Male CD-1 mice
Method: as §1
[…] The plasma concentration of 139 was measured at 0 min, 30 min, 1 h, 3 h, 6 h, 12 h, and 24 h time points. As discussed above for the i.v. administration, the analyte was extracted and analyzed by HPLC/mass spec.

[4] = test system: HT29 cell line; experiment: BrdU cell growth inhibition, HT29; format: cell-based, human; conditions: Homo sapiens, HT-29, HT29 (Colon) cells; read-out: GI50
Method: (§2) The GI50s for several of the compounds of the invention were assayed as described herein.
The HT29 cell line is a NCI standard human colon carcinoma cell line.
(§3) In the BrdU Assay for cell growth inhibition, quantitation of cell proliferation was based on the measurement of BrdU incorporation during DNA synthesis. The Cell Proliferation ELISA BrdU assay kit (colorimetric) was obtained from Roche Applied Science and performed as per vendor instructions.
(§4) The growth inhibition (GI) is determined from the formula GI=(T0−Tn×100/T0−CONn) where T0 is the BrdU growth of untreated cells at time “0”, Tn is the BrdU growth of treated cells at day “n” and CONn is the control BrdU growth of control cells at day “n”. The GI50 was extrapolated and the data plotted using XL-Fit 4.0 software.
(§5) For 96 well culture plate experiments, c-Src 3T3 medium was supplemented with 10 mM HEPES buffer. HT-29 cells were seeded in standard tissue culture 96-well plates and c-Src 3T3 cells were seeded in 96-well plates coated with Poly-D-lysine (BIOCOAT™). To increase CO2 diffusion, c-Src 3T3 96-well plates were incubated with their lids raised by ˜2 mm using sterile rubber caps.
(§6) Samples were reconstituted in DMSO at 20 mM and intermediate dilutions made using DMEM containing 10% FBS. […] Plates were assayed for BrdU and the data analyzed as above for GI50.
(§7) All compounds were initially prepared as 20 mM DMSO stock solutions and then diluted into buffer for the in vitro tumor growth assays. NG means no cell growth beyond the control and T means the number of cells in the drug treated wells was less than in the control (i.e. net cell loss).
(§8) Growth Inhibition. […] T1 values≤T0 values were designated as T, cytotoxicity.

[5] = test system: c-Src 3T3 cells; experiment: BrdU cell growth inhibition, c-Src 3T3; format: cell-based, mouse; conditions: Mus musculus; c-Src 3T3 (c-Src527F/NIH3T3) cells; read-out: GI50
Method: as §2
The cells were routinely cultured in DMEM supplemented with Fetal Bovine Serum (2.0% v/V), L-glutamine (2 mM) and Sodium Pyruvate (1 mM).
as §3, §4, §5, §6, §7

[6] = test system: lung cancer cell line A549; experiment: tumor growth inhibition, A549; format: cell-based, Human; conditions: Homo sapiens, A549, A549 (Lung) cells
Excerpt: as §8

[7] = test system: GL261 glioma cells; experiment: intracranial GL261 glioma survival study; format: in vivo, C57BL/6 mice; conditions: 5 mg/kg weekly ×1 oral; C57BL/6 mice, intracranial GL261
Method: (§9) A brain tumor mouse xenograft study was conducted comparing KX2-361 and KX2-391 (KXO1) to Temodar®. The studies were conducted in C57BL/6 mice. GL261 glioma cells (1×10^5 in 5 μl DMEM) were implanted intracranial coordinates: bregma, lateral 2.0 mm, anterior 1.2 mm, 3.0 mm depth dura. Treatment was initiated 3 days post implantation. The groups were as follows (all doses in 100 μl H2O):
The median survival range and the log-rank (Mantel-Cox) statistical test results comparing the survival distributions of the samples.

[8] = body weight in GL261 glioma survival study; format: in vivo; conditions: Temodar 5 mg/kg, C57BL/6 mice
Method: as §9
FIGS. 49A-E show the weight gain in each of the C57BL/6 mice in the different treatment groups. The average weight at endpoint for each of the treatment groups is shown below in Table 30. FIG. 50 is a graph showing the average weights over a 40-day period for each of the treatment groups.

[9] = test system: SKOV-3 (Ovarian); experiment: growth inhibition (BrdU), SKOV-3; format: cell-based, Human; conditions: Homo sapiens, SK-OV-3; SKOV-3 (Ovarian) cells
Excerpt: as §8

[10] = male, CD-1, mouse, single oral dose 25 mg/kg

SMILES: Nc1ccn([C@@H]2CS[C@H](CO)O2)c(=O)n1 [Compound 3TC, 3TC, reference compound]
Antiviral Activity Percent inhibition of cell control [1]: 92.0%
Interpretation [1]: Active

SMILES: COc1cc(Nc2c(C#N)cnc3cc(OCCCN4CCN(C)CC4)c(OC)cc23)c(Cl)cc1Cl [SKI-606]
GI50 [4]: 173 nM
GI50 [5]: 208 nM

SMILES: C#Cc1cccc(Nc2ncnc3cc(OCCOC)c(OCCOC)cc23)c1 [Tarceva, erlotinib, reference compound]
GI50 [6]: 1740 nM

SMILES: Cn1nnc2c(C(N)=O)ncn2c1=O [Temodar ®, Temodar®, reference compound]
Median survival [7]: 29
survival Range [7]: 26-29
Average weight at endpoint [8]: 13.3 g

Second part, led by results:

concentration at 5 min ([2]; male, CD-1, mouse, plasma, iv, 5 mg/kg, 5 min, read-out: Plasma Concentrations, Group A, B, C): 1200 ng/mL
concentration at 5 min ([2]; male, CD-1, mouse, plasma, iv, 5 mg/kg, 5 min, read-out: Plasma Concentrations, Mean): 1250 ng/mL
concentration at 15 min ([2]; male, CD-1, mouse, plasma, iv, 5 mg/kg, 15 min, read-out: Plasma Concentrations, Group A, B, C): 273 ng/mL
concentration at 15 min ([2]; male, CD-1, mouse, plasma, iv, 5 mg/kg, 15 min, read-out: Plasma Concentrations, Mean): 329 ng/mL
concentration at 30 min ([2]; male, CD-1, mouse, plasma, iv, 5 mg/kg, 30 min, read-out: Plasma Concentrations, Group A, B, C): 500 ng/mL
concentration at 30 min ([2]; male, CD-1, mouse, plasma, iv, 5 mg/kg, 30 min, read-out: Plasma Concentrations, Mean): 382 ng/mL
concentration at 1 h ([2]; male, CD-1, mouse, plasma, iv, 5 mg/kg, 1 hr, read-out: Plasma Concentrations, Group A, B, C): 186 ng/mL
concentration at 1 h ([2]; male, CD-1, mouse, plasma, iv, 5 mg/kg, 1 hr, read-out: Plasma Concentrations, Mean): 178 ng/mL
concentration at 3 h ([2]; male, CD-1, mouse, plasma, iv, 5 mg/kg, 3 hr, read-out: Plasma Concentrations, Mean): 207 ng/mL
concentration at 6 h ([2]; male, CD-1, mouse, plasma, iv, 5 mg/kg, 6 hr, read-out: Plasma Concentrations, Mean): 43.2 ng/mL
concentration at 12 h ([2]; male, CD-1, mouse, plasma, iv, 5 mg/kg, BLQ = 0, read-out: Plasma Concentrations, Mean): 3.67 ng/mL
concentration at 12 h ([2]; male, CD-1, mouse, plasma, iv, 5 mg/kg, read-out: Plasma Concentrations, Group A, B, C): 11 ng/mL
AUC(0-inf) ([2]; male, CD-1, mouse, plasma): 1420 ng·h/mL
AUC(0-t) ([2]; male, CD-1, mouse, plasma): 1410 ng·h/mL
C0 ([2]; male, CD-1, mouse, plasma): 2420 ng/mL
MRT ([2]; male, CD-1, mouse, plasma): 2.3 h
clearance ([2]; male, CD-1, mouse, plasma): 58.7 mL/min/kg
half-life ([2]; male, CD-1, mouse, plasma, estimated from 3, 6, 12 hours): 96 min
Vd ([2]; male, CD-1, mouse, plasma, read-out: Vss): 8.15 L/kg
% AUC Extrap ([2]; plasma): 0.6%
AUC0-∞/Dose ([2]; plasma): 284.1 kg·ng·h/mL/mg
Plasma Concentrations, Group A, B, C ([2]; 5 min, 5 mg/kg): 1287 ng/mL and 1260 ng/mL
Plasma Concentrations, Group A, B, C ([2]; 15 min, 5 mg/kg): 306 ng/mL and 407 ng/mL
Plasma Concentrations, Group A, B, C ([2]; 30 min, 5 mg/kg): 367 ng/mL and 279 ng/mL
Plasma Concentrations, Group A, B, C ([2]; 1 hr, 5 mg/kg): 210 ng/mL and 137 ng/mL
bioavailability ([3]; male, CD-1, mouse, (Mean AUC0-∞ oral/oral dose)/(Mean AUC0-∞ IV/IV dose)×100%, 25 mg/kg oral, 5 mg/kg IV, read-out: Estimated bioavailability): 34.4%
concentration at 30 min ([3]; male, CD-1, mouse, po, 25 mg/kg, single PO dose 25 mg/kg, 30 min, read-out: Plasma Concentrations, Mean): 318 ng/mL
concentration at 1 h ([3]; male, CD-1, mouse, po, 25 mg/kg, single PO dose 25 mg/kg, 1 hr, read-out: Plasma Concentrations, Mean): 142 ng/mL
concentration at 3 h ([3]; male, CD-1, mouse, po, 25 mg/kg, single PO dose 25 mg/kg, 3 hr, read-out: Plasma Concentrations, Mean): 330 ng/mL
concentration at 6 h ([3]; male, CD-1, mouse, po, 25 mg/kg, single PO dose 25 mg/kg, 6 hr, read-out: Plasma Concentrations, Mean): 119 ng/mL
concentration at 12 h ([3]; male, CD-1, mouse, po, 25 mg/kg, single PO dose 25 mg/kg, 12 hr, read-out: Plasma Concentrations, Mean): 56.6 ng/mL
concentration at 24 h ([3]; male, CD-1, mouse, po, 25 mg/kg, single PO dose 25 mg/kg, BLQ = 0, read-out: Plasma Concentrations, Mean): 15.6 ng/mL
concentration at 24 h ([3]; male, CD-1, mouse, po, 25 mg/kg, single PO dose 25 mg/kg, read-out: Plasma Concentrations, Group A, B, C): 31.2 ng/mL
AUC(0-inf) [3, 10]: 2440 ng·h/mL
AUC(0-t) [3, 10]: 2300 ng·h/mL
Cmax [3, 10]: 330 ng/mL
MRT [3, 10]: 7.7 h
Tmax [3, 10]: 3 h
half-life ([3]; male, CD-1, mouse, single oral dose 25 mg/kg, estimated from 6, 12, 24 hours): 372 min
% AUC Extrap ([3]; single oral dose 25 mg/kg): 5.7%
AUC0-∞/Dose ([3]; single oral dose 25 mg/kg): 97.6 kg·ng·h/mL/mg
SMILES: CN1CCN(CCOc2ccc(-c3ccc(CC(=O)NCc4cccc(F)c4)cc3)c(F)c2)CC1 [Compound 139, 2-(2′-fluoro-4′-(2-(4-methylpiperazin-1-yl)ethoxy)biphenyl-4-yl)-N-(3-fluorobenzyl)acetamide]

GI50 [4]: 52 nM
SMILES: O=C(Cc1ccc(-c2ccc(CN3CCOCC3)cc2F)cn1)NCc1cccc(F)c1 [KX2-393]
GI50 [5]: 24 nM

GI50 [9]: 3.9 nM
SMILES: CC(=O)O[C@H]1C(=O)[C@@]2(C)[C@H]([C@H](OC(=O)c3ccccc3)[C@]3(O)C[C@H](OC(=O)[C@H](O)[C@@H](NC(=O)c4ccccc4)c4ccccc4)C(C)=C1C3(C)C)[C@]1(OC(C)=O)CO[C@@H]1C[C@@H]2O [taxol, paclitaxel, reference compound]
